{
  "source": "patent US10167262B2",
  "about": "“Herbicidal substituted 3-arylpyrazoles” (FMC CORPORATION, priority 2014, dated 2019)",
  "type_in_all_cases": "in vivo",
  "key": {"[1]": {"test_system": "blackgrass (Alopecurus myosuroides)", "assay": "Test C pre-/postemergence greenhouse test, plant response rating 0-100", "conditions": "Alopecurus myosuroides, post-emergence, Postemergence", "procedure,_shortened": "(§1)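 Pre-emergence soil and post-emergence foliar sprays were applied simultaneously to seeded loam–sand pots and to 1–4-leaf plants in peat medium; greenhouse holding lasted 13–15 days, then plants were scored visually from 0 (no effect) to 100 (complete control).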"}, "[2]": {"test_system": "galium (catchweed bedstraw, Galium aparine)", "assay": "Test C pre-/postemergence greenhouse test, plant response rating 0-100", "conditions": "Galium, post-emergence, Postemergence", "procedure,_shortened": "as §1"}, "[3]": {"test_system": "giant foxtail (Setaria faberii)", "assay": "Test C pre-/postemergence greenhouse test, plant response rating 0-100", "conditions": "Setaria faberi, post-emergence, Postemergence", "procedure,_shortened": "as §1"}, "[4]": {"test_system": "johnsongrass (Sorghum halepense)", "assay": "Test C pre-/postemergence greenhouse test, plant response rating 0-100", "conditions": "Sorghum halepense, post-emergence, Postemergence", "procedure,_shortened": "as §1"}, "[5]": {"test_system": "lambsquarters (Chenopodium album)", "assay": "Test C pre-/postemergence greenhouse test, plant response rating 0-100", "conditions": "Chenopodium album, post-emergence, Postemergence", "procedure,_shortened": "as §1"}, "[6]": {"test_system": "large (Lg) crabgrass (Digitaria sanguinalis)", "assay": "Test C pre-/postemergence greenhouse test, plant response rating 0-100", "conditions": "Digitaria sanguinalis, post-emergence, Postemergence", "procedure,_shortened": "as §1"}, "[7]": {"test_system": "morningglory (Ipomoea coccinea)", "assay": "Test C pre-/postemergence greenhouse test, plant response rating 0-100", "conditions": "Ipomoea, post-emergence, Postemergence", "procedure,_shortened": "as §1"}, "[8]": {"test_system": "soybean (Glycine max)", "assay": "Test C pre-/postemergence greenhouse test, plant response rating 0-100", "conditions": "Glycine max, post-emergence, Postemergence", "procedure,_shortened": "as §1"}, "[9]": {"test_system": "winter wheat (Triticum aestivum)", "assay": "Test C pre-/postemergence greenhouse test, plant response rating 0-100", "conditions": "Triticum aestivum, post-emergence, Postemergence", "procedure,_shortened": "as §1"}, "[10]": {"test_system": "yellow nutsedge (Cyperus esculentus)", "assay": "Test C pre-/postemergence greenhouse test, plant response rating 0-100", "conditions": "Cyperus, post-emergence, Postemergence", "procedure,_shortened": "as §1"}, "[11]": {"test_system": "chickweed (common chickweed, Stellaria media)", "assay": "Test C postemergence greenhouse test, plant response rating 0-100", "conditions": "Stellaria media, post-emergence", "procedure,_shortened": "(§2)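 Postemergence spray onto 1–4-leaf potted seedlings, greenhouse incubation 13–15 days. Visual percent-control rating (0–100) against untreated plants.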"}, "[12]": {"test_system": "kochia (Kochia scoparia)", "assay": "Test C postemergence greenhouse test, plant response rating 0-100", "conditions": "Bassia scoparia, post-emergence", "procedure,_shortened": "as §2"}, "[13]": {"test_system": "wild oat (Avena fatua)", "assay": "Test C postemergence greenhouse test, plant response rating 0-100", "conditions": "Avena fatua, post-emergence", "procedure,_shortened": "as §2"}},
  "data": [
    {"smiles": "CCn1cc(C(=O)c2ccccc2)c(-c2cc(Cl)cc(Cl)c2)n1", "note": "[Compound 31, [3-(3,5-dichlorophenyl)-1-ethyl-1H-pyrazol-4-yl]phenylmethanone]", "values": [
      {"measurement": "pest or weed control at 16 g/ha", "setting": "[1]; 16 g ai/ha", "result": 0, "unit": "%"},
      {"measurement": "pest or weed control at 31 g/ha", "setting": "[1]; 31 g ai/ha, read-out: Plant response rating (0 to 100), Blackgrass", "result": 0, "unit": "%"},
      {"measurement": "pest or weed control at 62 g/ha", "setting": "[1]; 62 g ai/ha, read-out: Plant response rating (0 to 100), Blackgrass", "result": 0, "unit": "%"},
      {"measurement": "pest or weed control at 125 g/ha", "setting": "[1]; 125 g ai/ha, read-out: Plant response rating (0 to 100), Blackgrass", "result": 0, "unit": "%"},
      {"measurement": "pest or weed control at 16 g/ha", "setting": "[2]; 16 g ai/ha", "result": 0, "unit": "%"},
      {"measurement": "pest or weed control at 31 g/ha", "setting": "[2]; 31 g ai/ha, read-out: Plant response rating (0 to 100), Galium", "result": 0, "unit": "%"},
      {"measurement": "pest or weed control at 62 g/ha", "setting": "[2]; 62 g ai/ha, read-out: Plant response rating (0 to 100), Galium", "result": 0, "unit": "%"},
      {"measurement": "pest or weed control at 125 g/ha", "setting": "[2]; 125 g ai/ha, read-out: Plant response rating (0 to 100), Galium", "result": 5, "unit": "%"},
      {"measurement": "pest or weed control at 16 g/ha", "setting": "[3]; 16 g ai/ha", "result": 5, "unit": "%"},
      {"measurement": "pest or weed control at 31 g/ha", "setting": "[3]; 31 g ai/ha, read-out: Plant response rating (0 to 100), Foxtail, Giant", "result": 5, "unit": "%"},
      {"measurement": "pest or weed control at 62 g/ha", "setting": "[3]; 62 g ai/ha, read-out: Plant response rating (0 to 100), Foxtail, Giant", "result": 5, "unit": "%"},
      {"measurement": "pest or weed control at 125 g/ha", "setting": "[3]; 125 g ai/ha, read-out: Plant response rating (0 to 100), Foxtail, Giant", "result": 5, "unit": "%"},
      {"measurement": "pest or weed control at 16 g/ha", "setting": "[4]; 16 g ai/ha", "result": 0, "unit": "%"},
      {"measurement": "pest or weed control at 62 g/ha", "setting": "[4]; 62 g ai/ha, read-out: Plant response rating (0 to 100), Johnsongrass", "result": 5, "unit": "%"},
      {"measurement": "pest or weed control at 125 g/ha", "setting": "[4]; 125 g ai/ha, read-out: Plant response rating (0 to 100), Johnsongrass", "result": 10, "unit": "%"},
      {"measurement": "pest or weed control at 16 g/ha", "setting": "[5]; 16 g ai/ha", "result": 25, "unit": "%"},
      {"measurement": "pest or weed control at 62 g/ha", "setting": "[5]; 62 g ai/ha, read-out: Plant response rating (0 to 100), Lambsquarters", "result": 55, "unit": "%"},
      {"measurement": "pest or weed control at 125 g/ha", "setting": "[5]; 125 g ai/ha, read-out: Plant response rating (0 to 100), Lambsquarters", "result": 80, "unit": "%"},
      {"measurement": "pest or weed control at 16 g/ha", "setting": "[6]; 16 g ai/ha", "result": 5, "unit": "%"},
      {"measurement": "pest or weed control at 31 g/ha", "setting": "[6]; 31 g ai/ha, read-out: Plant response rating (0 to 100), Crabgrass, Large", "result": 5, "unit": "%"},
      {"measurement": "pest or weed control at 62 g/ha", "setting": "[6]; 62 g ai/ha, read-out: Plant response rating (0 to 100), Crabgrass, Large", "result": 5, "unit": "%"},
      {"measurement": "pest or weed control at 125 g/ha", "setting": "[6]; 125 g ai/ha, read-out: Plant response rating (0 to 100), Crabgrass, Large", "result": 5, "unit": "%"},
      {"measurement": "pest or weed control at 16 g/ha", "setting": "[7]; 16 g ai/ha", "result": 0, "unit": "%"},
      {"measurement": "pest or weed control at 62 g/ha", "setting": "[7]; 62 g ai/ha, read-out: Plant response rating (0 to 100), Morningglory", "result": 5, "unit": "%"},
      {"measurement": "pest or weed control at 125 g/ha", "setting": "[7]; 125 g ai/ha, read-out: Plant response rating (0 to 100), Morningglory", "result": 5, "unit": "%"},
      {"measurement": "plant injury at 16 g/ha", "setting": "[8]; 16 g ai/ha", "result": 0, "unit": "%"},
      {"measurement": "plant injury at 62 g/ha", "setting": "[8]; 62 g ai/ha, read-out: Plant response rating (0 to 100), Soybean", "result": 0, "unit": "%"},
      {"measurement": "plant injury at 125 g/ha", "setting": "[8]; 125 g ai/ha, read-out: Plant response rating (0 to 100), Soybean", "result": 5, "unit": "%"},
      {"measurement": "plant injury at 16 g/ha", "setting": "[9]; 16 g ai/ha", "result": 0, "unit": "%"},
      {"measurement": "plant injury at 62 g/ha", "setting": "[9]; 62 g ai/ha, read-out: Plant response rating (0 to 100), Wheat", "result": 0, "unit": "%"},
      {"measurement": "plant injury at 125 g/ha", "setting": "[9]; 125 g ai/ha, read-out: Plant response rating (0 to 100), Wheat", "result": 0, "unit": "%"},
      {"measurement": "pest or weed control at 16 g/ha", "setting": "[10]; 16 g ai/ha", "result": 0, "unit": "%"},
      {"measurement": "pest or weed control at 62 g/ha", "setting": "[10]; 62 g ai/ha, read-out: Plant response rating (0 to 100), Nutsedge, Yellow", "result": 5, "unit": "%"},
      {"measurement": "pest or weed control at 125 g/ha", "setting": "[10]; 125 g ai/ha, read-out: Plant response rating (0 to 100), Nutsedge, Yellow", "result": 5, "unit": "%"},
      {"measurement": "pest or weed control at 16 g/ha", "setting": "[11]; 16 g ai/ha", "result": 10, "unit": "%"},
      {"measurement": "pest or weed control at 31 g/ha", "setting": "[11]; 31 g ai/ha", "result": 70, "unit": "%"},
      {"measurement": "pest or weed control at 62 g/ha", "setting": "[11]; 62 g ai/ha", "result": 75, "unit": "%"},
      {"measurement": "pest or weed control at 125 g/ha", "setting": "[11]; 125 g ai/ha", "result": 80, "unit": "%"},
      {"measurement": "pest or weed control at 16 g/ha", "setting": "[12]; 16 g ai/ha", "result": 5, "unit": "%"},
      {"measurement": "pest or weed control at 62 g/ha", "setting": "[12]; 62 g ai/ha", "result": 40, "unit": "%"},
      {"measurement": "pest or weed control at 125 g/ha", "setting": "[12]; 125 g ai/ha", "result": 40, "unit": "%"},
      {"measurement": "pest or weed control at 16 g/ha", "setting": "[13]; 16 g ai/ha", "result": 0, "unit": "%"},
      {"measurement": "pest or weed control at 62 g/ha", "setting": "[13]; 62 g ai/ha", "result": 0, "unit": "%"},
      {"measurement": "pest or weed control at 125 g/ha", "setting": "[13]; 125 g ai/ha", "result": 0, "unit": "%"}
    ]}
  ]
}
